Experimental data: patent US9334276B2, “Forms and salts of a dihydropyrrolo[1,2c]imidazolyl aldosterone synthase or aromatase inhibitor” (Novartis AG, priority 2012, dated 2016)
Where two headings read alike, the source gives them in different places.

Legend:
[1] = Hygroscopicity: sorption/desorption isotherms, VTI 100 humidity microbalance; format: physicochemical; conditions: for Moisture gain (water uptake): 25° C.
Protocol: Sorption/desorption isotherms were measured using the VTI 100 humidity microbalance (VTI Corporation, Hialeah, Fla., USA). Measurements were carried out at 25° C. Samples were dried under N2 flow at 25° C.

[2] = Determination of solubility (excess solids equilibrated over 24 hours at 25° C.); format: physicochemical; conditions: thermodynamic from solid
Protocol: Excess solids were equilibrated in each solvent for over 24 hours at 25° C.±0.1. Concentration in supernatant was measured by gravimetry for organic solvents and by HPLC from aqueous solvents and propylene glycol.

Structure (SMILES)	Moisture gain (water uptake) ([1]; 0% r.h.) [%]	Moisture gain (water uptake) ([1]; 5% r.h., listed as Phosphate) [%]	Moisture gain (water uptake) ([1]; 5% r.h., listed as phosphate salt) [%]	Moisture gain (water uptake) ([1]; 25% r.h.) [%]	Moisture gain (water uptake) ([1]; 50% r.h.) [%]	Moisture gain (water uptake) ([1]; 75% r.h., listed as Phosphate) [%]	Moisture gain (water uptake) ([1]; 75% r.h., listed as phosphate salt) [%]	Moisture gain (water uptake) ([1]; 85% r.h.) [%]	Moisture gain (water uptake) ([1]; 95% r.h.) [%]	Moisture gain (water uptake) ([1]; 5% r.h.) [%]	Moisture gain (water uptake) ([1]; 75% r.h.) [%]	Hygroscopicity (in words) ([1]; in contrast to the phosphate and nitrate salts)	solubility ([2]; organic solvent or mixture, Ethyl Acetate, read-out: Solubility profile) [mg/mL]	solubility ([2]; simulated gastric fluid, pH 1, read-out: Solubility profile) [mg/mL]	Moisture gain (water uptake) ([1]; 5% r.h., listed as Nitrate) [%]
N#Cc1ccc([C@H]2CCc3cncn32)c(F)c1.O=P(O)(O)O [Phosphate salt, Phosphate salt of 4-(R)-(6,7-dihydro-5H-pyrrolo[1,2-c]imidazol-5-yl)-3-fluoro-benzonitrile (Form A)]	0.0	0.0	0	0.1	0.1	0.2	0.9	0.3	0.8	–	–	–	–	–	–
Cl.N#Cc1ccc([C@H]2CCc3cncn32)c(F)c1 [HCl salt, HCl salt of 4-(R)-(6,7-dihydro-5H-pyrrolo[1,2-c]imidazol-5-yl)-3-fluoro-benzonitrile, reference compound]	0.0	–	–	0.5	0.2	–	–	3.3	23.6	0.0	0.2	excessive hygroscopicity	–	–	–
N#Cc1ccc([C@H]2CCc3cncn32)c(F)c1 [Free base, 4-(R)-(6,7-Dihydro-5H-pyrrolo[1,2-c]imidazol-5-yl)-3-fluoro-benzonitrile]	0.0	–	–	0.1	0.2	–	–	0.5	1.0	0.0	0.3	–	> 50	> 50	–
N#Cc1ccc([C@H]2CCc3cncn32)c(F)c1.O=[N+]([O-])O [nitrate salt, Nitrate salt of 4-(R)-(6,7-dihydro-5H-pyrrolo[1,2-c]imidazol-5-yl)-3-fluoro-benzonitrile]	0.0	–	–	0.1	0.2	–	–	0.2	0.2	0	0.2	–	–	–	0.0
